Experimental data reported in US20100298141A1, “SUBSTITUTED PYRIDINE N-OXIDE HERBICIDES” (E. I. DU PONT DE NEMOURS AND COMPANY, priority 2007, published 2010).

Columns and labels:
green foxtail = assay: Test D preemergence test; format: in vivo, Setaria viridis; settings: scale 0 to 100
Excerpt: (§1) Seeds of plant species selected from annual bluegrass (Poa annua), blackgrass (Alopecurus myosuroides), downy bromegrass (Bromus tectorum), field violet (Viola arvensis), green foxtail (Setaria viridis), Italian ryegrass (Lolium multiflorum), littleseed canarygrass (Phalaris minor), spring wheat (Triticum aestivum), wild oat (Avena fatua), […]), winter barley (Hordeum vulgare), and winter wheat (Triticum aestivum) were planted and treated preemergence with test chemicals formulated in a non-phytotoxic solvent mixture which included a surfactant. […] A dash (-) response means no test result.

downy bromegrass = assay: Test D preemergence test; format: in vivo, Bromus tectorum; settings: scale 0 to 100
Excerpt: as §1

field sandbur = assay: Test G preemergence test; format: in vivo, Cenchrus incertus; settings: scale 0 to 100
millet = assay: Test G preemergence test; format: in vivo, Panicum miliaceum; settings: scale 0 to 100
Russian thistle = assay: Test F preemergence test; format: in vivo, Salsola kali; settings: scale 0 to 100
Excerpt: Seeds of plant species selected from bermudagrass (Cynodon dactylon), Surinam grass (Brachiaria decumbens), large crabgrass (Digitaria sanguinalis), green foxtail (Setaria viridis), goosegrass (Eleusine indica), johnsongrass (Sorghum halepense), kochia (Kochia scoparia), pitted morningglory (Ipomoea lacunosa), purple nutsedge (Cyperus rotundus), common ragweed (Ambrosia elation), mustard (Brassica nigra), guineagrass (Panicum maximum), […] (Paspalum dilatatum), barnyardgrass (Echinochloa crus-galli), southern sandbur (Cenchrus echinatus), common sowthistle (Sonchus oleraceous), prickly […] spinosa), Italian ryegrass (Lolium multiflorum), common purslane (Portulaca oleracea), broadleaf signalgrass (Brachiaria platyphylla), common groundsel (Senecio vulgaris), common chickweed (Stellaria media), Virginia dayflower (Commelina virginica), annual bluegrass (Poa annua), naked crabgrass (Digitaria nuda), […] cochinchinensis), quackgrass (Elytrigia repens), Canada horseweed (Conyza canadensis), field bindweed (Convolvulus arvensis), […] (Bidens bipinnata), common mallow (Malva sylvestris), Russian thistle (Salsola kali), and sugarcane (Saccharum officinarum) were planted and treated preemergence with test chemicals formulated in a non-phytotoxic solvent mixture which included a surfactant. At a different time, sugarcane was treated with postemergence applications of some of the test chemicals formulated in the same manner. Plants were approximately 3- to 4-leaf stage for the postemergence treatments. Treated plants and controls were maintained in a greenhouse for 14 to 21 days, after which time all species were compared to controls and visually evaluated. […] A dash (-) response means no test result.

canarygrass = assay: Test C postemergence test; format: in vivo, Phalaris minor; settings: for Plant response rating, Canarygrass: scale 0 to 100, 0 no effect, 100 complete control
Outline: (§2)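 Postemergence sprays of formulated test chemicals on plants 2 to 18 cm tall (1- to 4-leaf stage). Greenhouse hold for 13 to 15 days, then visual rating of each species against untreated controls; dash means no test result.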

winter barley = assay: Test C postemergence test; format: in vivo, Hordeum vulgare; settings: for Plant response rating, Barley: scale 0 to 100, 0 no effect, 100 complete control
Outline: as §2

windgrass = assay: Test C pre-/postemergence test; format: in vivo, Apera spica-venti; settings: Postemergence; for Plant response rating, Windgrass: scale 0 to 100, 0 no effect, 100 complete control
common chickweed = assay: Test F preemergence test; format: in vivo, Stellaria media; settings: scale 0 to 100
Outline: (§3)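 Compounds in a non-phytotoxic solvent formulation with surfactant were applied before emergence after sowing, or, for sugarcane, also postemergence. Evaluation was visual, against controls, after 14 to 21 greenhouse days.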

chickweed = assay: Test C postemergence test; format: in vivo, Stellaria media; settings: for Plant response rating, Chickweed: scale 0 to 100, 0 no effect, 100 complete control
Outline: as §2

common sowthistle = assay: Test F preemergence test; format: in vivo, Sonchus oleraceous; settings: scale 0 to 100
Outline: as §3

Canada horseweed = assay: Test F preemergence test; format: in vivo, Conyza canadensis; settings: scale 0 to 100
Outline: as §3

Cc1cc[n+]([O-])c(S(=O)(=O)C(C)c2c(C(F)(F)F)nn(C)c2Cl)c1 (racemic) [Compound 14]
Plant response rating, Foxtail, Green (green foxtail; 31 g ai/ha): 0
Plant response rating, Foxtail, Green (green foxtail; 62 g ai/ha): 20
Plant response rating, Foxtail, Green (green foxtail; 125 g ai/ha): 65
Plant response rating, Foxtail, Green (green foxtail; 250 g ai/ha): 80
Plant response rating, Bromegrass, Downy (downy bromegrass; 31 g ai/ha): 0
Plant response rating, Bromegrass, Downy (downy bromegrass; 62 g ai/ha): 0
Plant response rating, Bromegrass, Downy (downy bromegrass; 125 g ai/ha): 60
Plant response rating, Bromegrass, Downy (downy bromegrass; 250 g ai/ha): 60
Plant response rating, Sandbur (field sandbur; 31 g ai/ha): 0
Plant response rating, Sandbur (field sandbur; 62 g ai/ha): 20
Plant response rating, Sandbur (field sandbur; 125 g ai/ha): 45
Plant response rating, Sandbur (field sandbur; 250 g ai/ha): 85
Plant response rating, Millet (millet; 31 g ai/ha): 0
Plant response rating, Millet (millet; 62 g ai/ha): 15
Plant response rating, Millet (millet; 125 g ai/ha): 20
Plant response rating, Millet (millet; 250 g ai/ha): 75

Cc1cc[n+]([O-])c([S+]([O-])Cc2c(C(F)(F)F)nn(C)c2OC(F)F)c1 (centres unmarked) [Compound 1]
Plant response rating, Russian Thistle (Russian thistle; 8 g ai/ha, preemergence): 0
Plant response rating, Russian Thistle (Russian thistle; Preemergence, 16 g ai/ha): 0
Plant response rating, Russian Thistle (Russian thistle; Preemergence, 31 g ai/ha): 0
Plant response rating, Foxtail, Green (green foxtail; 31 g ai/ha): 0
Plant response rating, Foxtail, Green (green foxtail; 62 g ai/ha): 95
Plant response rating, Foxtail, Green (green foxtail; 125 g ai/ha): 100
Plant response rating, Foxtail, Green (green foxtail; 250 g ai/ha): 100
Plant response rating, Bromegrass, Downy (downy bromegrass; 31 g ai/ha): 0
Plant response rating, Bromegrass, Downy (downy bromegrass; 62 g ai/ha): 30
Plant response rating, Bromegrass, Downy (downy bromegrass; 125 g ai/ha): 40
Plant response rating, Bromegrass, Downy (downy bromegrass; 250 g ai/ha): 40
Plant response rating (0 to 100), Canarygrass (canarygrass; 31 g ai/ha): 0
Plant response rating, Canarygrass (canarygrass; 62 g ai/ha): 0
Plant response rating, Canarygrass (canarygrass; 125 g ai/ha): 0
Plant response rating, Canarygrass (canarygrass; 250 g ai/ha): 0
Plant response rating (0 to 100), Barley (winter barley; 31 g ai/ha): 0
Plant response rating, Barley (winter barley; 62 g ai/ha): 0
Plant response rating, Barley (winter barley; 125 g ai/ha): 0
Plant response rating, Barley (winter barley; 250 g ai/ha): 0
Plant response rating (0 to 100), Windgrass (windgrass; 31 g ai/ha): 0
Plant response rating (0 to 100), Windgrass (windgrass; 62 g ai/ha): 10
Plant response rating, Windgrass (windgrass; 125 g ai/ha): 60
Plant response rating, Windgrass (windgrass; 250 g ai/ha): 85
Plant response rating, Chickweed (common chickweed; 8 g ai/ha, preemergence): 40
Chickweed plant response rating (common chickweed; 62 g ai/ha, Preemergence): 100
Plant response rating, Chickweed (common chickweed; Preemergence, 16 g ai/ha): 60
Plant response rating, Chickweed (common chickweed; Preemergence, 31 g ai/ha): 98
Plant response rating (0 to 100), Chickweed (chickweed; 31 g ai/ha): 50
Plant response rating, Chickweed (chickweed; 62 g ai/ha): 65
Plant response rating, Chickweed (chickweed; 125 g ai/ha): 90
Plant response rating, Chickweed (chickweed; 250 g ai/ha): 90
Plant response rating, Sandbur (field sandbur; 31 g ai/ha): 0
Plant response rating, Sandbur (field sandbur; 62 g ai/ha): 40
Plant response rating, Sandbur (field sandbur; 125 g ai/ha): 65
Plant response rating, Sandbur (field sandbur; 250 g ai/ha): 100
Plant response rating, Millet (millet; 31 g ai/ha): 0
Plant response rating, Millet (millet; 62 g ai/ha): 25
Plant response rating, Millet (millet; 125 g ai/ha): 20
Plant response rating, Millet (millet; 250 g ai/ha): 100
Plant response rating, Sowthistle (common sowthistle; 8 g ai/ha, preemergence): 0
Plant response rating, Sowthistle (common sowthistle; 16 g ai/ha, preemergence): 0
Sowthistle plant response rating (common sowthistle; 62 g ai/ha, Preemergence): 70
Plant response rating, Sowthistle (common sowthistle; Preemergence, 31 g ai/ha): 30

Cc1cc[n+]([O-])c([S+]([O-])Cc2c(C(F)(F)F)nn(C)c2OCC(F)(F)F)c1 (racemic) [Compound 30]
Horseweed plant response rating (Canada horseweed; 62 g ai/ha, Preemergence): 100
Horseweed plant response rating (Canada horseweed; 125 g ai/ha, preemergence): 100
Plant response rating, Horseweed (Canada horseweed; Preemergence, 16 g ai/ha): 100
Plant response rating, Horseweed (Canada horseweed; Preemergence, 31 g ai/ha): 100
Russian Thistle plant response rating (Russian thistle; 62 g ai/ha, Preemergence): 100
Russian Thistle plant response rating (Russian thistle; 125 g ai/ha, preemergence): 100
Plant response rating, Russian Thistle (Russian thistle; Preemergence, 16 g ai/ha): 100
Plant response rating, Russian Thistle (Russian thistle; Preemergence, 31 g ai/ha): 100
Chickweed plant response rating (common chickweed; 62 g ai/ha, Preemergence): 100
Chickweed plant response rating (common chickweed; 125 g ai/ha, preemergence): 100
Plant response rating, Chickweed (common chickweed; Preemergence, 16 g ai/ha): 75
Plant response rating, Chickweed (common chickweed; Preemergence, 31 g ai/ha): 100
Sowthistle plant response rating (common sowthistle; 62 g ai/ha, Preemergence): 100
Sowthistle plant response rating (common sowthistle; 125 g ai/ha, preemergence): 100
Plant response rating, Sowthistle (common sowthistle; Preemergence, 31 g ai/ha): 100

Cn1nc(C(F)(F)F)c(CS(=O)(=O)c2cccc[n+]2[O-])c1OC(F)F [Compound 4]
Plant response rating, Russian Thistle (Russian thistle; 8 g ai/ha, preemergence): 0
Russian Thistle plant response rating (Russian thistle; 62 g ai/ha, Preemergence): 100
Plant response rating, Russian Thistle (Russian thistle; Preemergence, 16 g ai/ha): 0
Plant response rating, Russian Thistle (Russian thistle; Preemergence, 31 g ai/ha): 100
Plant response rating, Foxtail, Green (green foxtail; 31 g ai/ha): 40
Plant response rating, Foxtail, Green (green foxtail; 62 g ai/ha): 50
Plant response rating, Foxtail, Green (green foxtail; 125 g ai/ha): 50
Plant response rating, Foxtail, Green (green foxtail; 250 g ai/ha): 100
Plant response rating, Bromegrass, Downy (downy bromegrass; 31 g ai/ha): 30
Plant response rating, Bromegrass, Downy (downy bromegrass; 62 g ai/ha): 30
Plant response rating, Bromegrass, Downy (downy bromegrass; 125 g ai/ha): 30
Plant response rating, Bromegrass, Downy (downy bromegrass; 250 g ai/ha): 30
Plant response rating, Chickweed (common chickweed; 8 g ai/ha, preemergence): 60
Chickweed plant response rating (common chickweed; 62 g ai/ha, Preemergence): 100
Plant response rating, Chickweed (common chickweed; Preemergence, 16 g ai/ha): 100
Plant response rating, Chickweed (common chickweed; Preemergence, 31 g ai/ha): 100
Plant response rating, Sandbur (field sandbur; 31 g ai/ha): 0
Plant response rating, Sandbur (field sandbur; 62 g ai/ha): 30
Plant response rating, Sandbur (field sandbur; 125 g ai/ha): 60
Plant response rating, Sandbur (field sandbur; 250 g ai/ha): 100
Plant response rating, Millet (millet; 31 g ai/ha): 20
Plant response rating, Millet (millet; 62 g ai/ha): 40
Plant response rating, Millet (millet; 125 g ai/ha): 40
Plant response rating, Millet (millet; 250 g ai/ha): 100
